From patent publication US11173174B2, “DNMT inhibitor as solid tumor therapeutic drug” (OHARA PHARMACEUTICAL CO., LTD., priority 2017, dated 2021)

Assays:
[1] = test system: DNA methyltransferase (DNMT); experiment: Screening system for DNMT inhibitory activity (secretory luciferase reporter in HML58-3 cells); format: cell-based; details: 10 μM of sample, cultured for 4 days, cell supernatant on day 5, HML58-3 cells
Source text: The screening system for assessment of DNMT inhibitory activity used for 5′-position dibenzyl monophosphate derivatives of 5-azacytidine and its 2′-deoxy form is the evaluation system which we have developed recently (Epigenetics, 2016, Dec 9:0: Establishment of a high-throughput detection system for DNA demethylating agents, E. Okochi-Takada, N. Hattori et al.). It is a simple screening system for assessment of DNMT inhibitory activity which uses genetically modified colorectal cancer cells, wherein […] luciferase can be expressed when 5-position methylation of cytosine ring in expressed gene promoter region is inhibited by inhibiting DNA methyltransferase (DNMT).
The screening system for assessment of DNMT inhibitory activity used for 5′-position dibenzyl monophosphate derivatives of 5-azacytidine and its 2′-deoxy form is the evaluation system which we have developed recently (Epigenetics, 2016, Dec 9:0: Establishment of a high-throughput detection system for DNA demethylating agents, E. Okochi-Takada, N.
(§1) Hattori et al.). In the evaluation system, a vector in which a secretory luciferase gene was ligated in the downstream of the endogenous promoter CpG island region was introduced into colon cancer cells. When inhibitions of DNA methyltransferase (DNMT) or other DNA methylation maintenance mechanism occur, C-methylation of the promoter CpG island decreases and secretory luciferase is expressed. Since the luciferase is secretory type, it is a screening system for DNMT inhibitory activity by which the assessment can be conducted easily by collecting cell supernatant and adding the substrate of luciferin. That is, on the day before the sample addition, colon cancer cells HML58-3 that had been genetically modified were seeded in a 96-well cell culture plate. 10 μM of each sample was added to each of them, and cultured for 4 days. On day 5, the cell supernatant was collected and luciferase activity was determined. In addition, cell account for each sample was determined according to WST-8 method.

[2] = Distribution coefficient log P (n-octanol/PBS); format: physicochemical
Source text: The separation systems of silica gel column, separation yields, data obtained from instrumental analysis and distribution coefficients of the compounds (A) to (E) which are 5′-position dibenzyl monophosphates of 5-azacytidines synthesized according to the above synthetic methods A or B are shown as below.

[3] = test system: colon cancer cells HML58-3; experiment: Cell count by WST-8 method (cytotoxicity); format: cell-based; details: 10 μM of sample, cultured for 4 days, HML58-3 cells
Source text: as §1

[4] = test system: HCT116 cell (human colon cancer); experiment: Antitumor activity in HCT116 cell-transplanted mouse model; format: in vivo, nude mice; details: intraperitoneal, twice a week, 6 times in total; 5.5, 11 and 22 mg/kg; observed until 28th day; vs vehicle (DMSO)
Experimental: (§2) In vivo assessment In order to investigate the antitumor activity of 5′-position dibenzyl monophosphate derivatives of 5-azacytidine and its 2′-deoxy form, a HCT116 cell-transplanted mouse model derived from human colon cancer was used. After nurturing nude mice (female, 5 weeks old), 5×10^6 cells were transplanted subcutaneously into right flank. From the grouping date, samples in various concentrations (DMSO solution) were administered intraperitoneally for 6 times in total, at a frequency of twice a week. The observation was performed until the 28th day after grouping, during which body weight and tumor diameter were measured at a frequency of once a week.

[5] = Body weight / safety in HCT116 cell-transplanted mouse model; format: in vivo, nude mice; details: intraperitoneal, twice a week, 6 times in total; 5.5, 11 and 22 mg/kg; observed until 28th day
Experimental: as §2

Substance	Luciferase activity (DNMT inhibition) [1]	Distribution coefficient log P [2]	Cytotoxicity (cell count, WST-8 method) [3]	Antitumor activity (tumor volume) [4]	Safety / change in body weight [5]
O,O′-Di(4-chloro)benzyl 5-aza-2′-deoxycytidylate [Compound (E)]	very strong luciferase activity	2.44	low	–	–
O,O′-Di(4-fluoro)benzyl 5-aza-2′-deoxycytidylate [Compound (D)]	very strong luciferase activity	1.40	low	dose-dependent antitumor activity	highly safe
O,O′-Di(4-methyl)benzyl 5-aza-2′-deoxycytidylate [Compound (C)]	very strong luciferase activity	–	low	–	–
O,O′-Dibenzyl 5-aza-2′-deoxycytidylate [Compound (B)]	very strong luciferase activity	1.15	low	–	–
O,O′-Dibenzyl 5-azacytidylate [Compound (A)]	–	0.83	–	–	–
